Experimental findings from patent US20250243488A1, “METHODS OF MODULATING PROGRANULIN EXPRESSION USING ANTISENSE OLIGONUCLEOTIDES TARGETING REGULATORY RNAS” (Camp4 Therapeutics Corporation, priority 2022, published 2025) are described below.

Oligonucleotides are written 5' to 3', each unit as a sugar letter and its base; * is a phosphorothioate linkage, no mark a phosphodiester; rarer units and linkages stand in square brackets, end groups in braces. Plain capitals give the bases only. e = 2'-O-(2-methoxyethyl) (MOE); [5mC] = 5-methylcytosine

This series concerns GRN mRNA. The series can be described thus: GRN mRNA qPCR in SK-N-AS cells transfected with ASOs. The format is cell-based, human. The following applies: SK-N-AS; for hGRN mRNA FC: Table 9, 48 hours post-transfection; for hGRN mRNA FC / 120 nM FC (GRN mRNA): 120 nM; for hGRN mRNA FC / 3.75 nM FC (GRN mRNA) / 7.5 nM FC (GRN mRNA) / 15 nM FC (GRN mRNA) / 30 nM FC (GRN mRNA) / 60 nM FC (GRN mRNA) / 120 nM FC (GRN mRNA): normalized to CO-1589; for hit identification (GRN mRNA dose escalation): 3.75 nM to 120 nM; for hit identification (GRN mRNA dose escalation) / 3.75 nM FC (GRN mRNA) / 7.5 nM FC (GRN mRNA) / 15 nM FC (GRN mRNA) / 30 nM FC (GRN mRNA) / 60 nM FC (GRN mRNA) / 120 nM FC (GRN mRNA): 48 hours; for 3.75 nM FC (GRN mRNA) / 7.5 nM FC (GRN mRNA) / 15 nM FC (GRN mRNA) / 30 nM FC (GRN mRNA) / 60 nM FC (GRN mRNA) / 120 nM FC (GRN mRNA): Table 10. The method in brief: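 Human neuroblastoma SK-N-AS cells transfected with ASOs at increasing concentrations (20 to 160 nM in initial titrations); GRN mRNA quantified by qPCR after 48 hours. Normalized to GAPDH and PPIA, fold change relative to steric non-targeting control ASO(s) (sNTC/CO-1589, with CO-3772 and CO-1929 in some series).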
On the technique in general: In qPCR the cycle at which signal appears reflects the starting amount.

“CO-4625: ASO designed to target intergenic enhancers (eRNA) (antisense eT*e[5mC]*eT*eT*eG*eT*eT*eG*eT*eT*eG*eG*eA*eA*eA*eT*eT*e[5mC]*e[5mC]*e[5mC])”: the “hGRN mRNA FC” value came to 1.1 FC.

As to “CO-4626: ASO designed to target intergenic enhancers (eRNA) (antisense e[5mC]*e[5mC]*eT*e[5mC]*eA*eT*eG*eT*eA*eT*eG*eT*eA*eA*eT*eT*eG*e[5mC]*e[5mC]*e[5mC])”, the “hGRN mRNA FC” value was 1.0 FC.

Consider “CO-4627: ASO designed to target intergenic enhancers (eRNA) (antisense eA*e[5mC]*eT*e[5mC]*eA*eA*eT*eG*e[5mC]*eA*eT*eA*eG*e[5mC]*eA*eG*eA*eA*eT*eA)”, for which the “hGRN mRNA FC” value is 1.3 FC.

Consider “CO-4628: ASO designed to target intergenic enhancers (eRNA) (antisense eT*e[5mC]*e[5mC]*eA*eT*eA*e[5mC]*eA*eA*e[5mC]*eT*eG*e[5mC]*eA*eG*eA*eG*eT*eG*eG)”, for which the “hGRN mRNA FC” value was 1.0 FC.

With “CO-4629: ASO designed to target intergenic enhancers (eRNA) (antisense eA*eT*eG*eG*e[5mC]*eA*eA*eA*eT*eG*eA*e[5mC]*e[5mC]*eT*eT*e[5mC]*eG*eG*eT*eA)”, the “hGRN mRNA FC” value was determined as 1.1 FC.

Turning to “CO-4630: ASO designed to target intergenic enhancers (eRNA) (antisense eG*eT*e[5mC]*eT*eT*e[5mC]*eA*eA*eG*eA*eA*e[5mC]*eT*eT*eT*eA*e[5mC]*e[5mC]*eG*eA)”, the “hGRN mRNA FC” value was found to be 1.0 FC.

For “CO-4631: ASO designed to target intergenic enhancers (eRNA) (antisense eA*e[5mC]*e[5mC]*eA*e[5mC]*eT*e[5mC]*eT*eG*e[5mC]*eA*eG*eT*eT*eG*eT*eA*eT*eG*eG)”, the “hit identification (GRN mRNA dose escalation)” value (“hit identification” below) is reported as “initial hits”, the “hGRN mRNA FC” value is 1.1 FC, the “3.75 nM FC (GRN mRNA)” value was found to be 1.1 FC and the “7.5 nM FC (GRN mRNA)” value is 1.1 FC. The “15 nM FC (GRN mRNA)” value is given as 1.2 FC, the “30 nM FC (GRN mRNA)” value was 1.1 FC, the “60 nM FC (GRN mRNA)” value was found to be 1.1 FC and the “120 nM FC (GRN mRNA)” value was 1.3 FC.

For the substance “CO-4632: ASO designed to target intergenic enhancers (eRNA) (antisense eT*eG*e[5mC]*eT*eA*eT*eG*e[5mC]*eA*eT*eT*eG*eA*eG*eT*eT*eT*eT*e[5mC]*e[5mC])”, the “hGRN mRNA FC” value is recorded as 1.1 FC.

“CO-4633: ASO designed to target intergenic enhancers (eRNA) (antisense eT*e[5mC]*e[5mC]*eT*e[5mC]*eT*eG*e[5mC]*e[5mC]*eT*eG*eA*e[5mC]*eT*eA*eA*eT*eT*e[5mC]*eG)”: the “hGRN mRNA FC” value was found to be 1.3 FC.

Consider “CO-4634: ASO designed to target intergenic enhancers (eRNA) (antisense eT*eT*eT*eA*e[5mC]*e[5mC]*e[5mC]*eA*eT*eA*eT*eA*e[5mC]*e[5mC]*e[5mC]*eA*e[5mC]*eA*e[5mC]*e[5mC])”, for which the “hGRN mRNA FC” value was found to be 1.1 FC.

“CO-4635: ASO designed to target intergenic enhancers (eRNA) (antisense eG*eT*eT*eT*eG*e[5mC]*eA*eA*eT*eT*e[5mC]*eT*e[5mC]*eA*eG*eA*e[5mC]*e[5mC]*eT*eG)”: the “hGRN mRNA FC” value is listed as 1.0 FC.

Regarding “CO-4636: ASO designed to target intergenic enhancers (eRNA) (antisense eG*eG*e[5mC]*eA*eA*eT*eT*eA*e[5mC]*eA*eT*eA*e[5mC]*eA*eT*eG*eA*eG*eG*eA)”, the “hGRN mRNA FC” value is on record as 0.9 FC.

In the case of “CO-4637: ASO designed to target intergenic enhancers (eRNA) (antisense eT*eA*eA*eG*eG*eT*eG*eT*eA*eG*eG*eA*e[5mC]*eA*eG*eT*e[5mC]*eT*eG*eA)”, the “hit identification” value is given as “initial hits”, the “hGRN mRNA FC” value is 0.9 FC, the “3.75 nM FC (GRN mRNA)” value turned out to be 1.1 FC and the “7.5 nM FC (GRN mRNA)” value was 1.1 FC. Also, the “15 nM FC (GRN mRNA)” value amounted to 1.2 FC, the “30 nM FC (GRN mRNA)” value came out at 1.1 FC, the “60 nM FC (GRN mRNA)” value is given as 1.2 FC and the “120 nM FC (GRN mRNA)” value is listed as 1.3 FC.

As for “CO-4638: ASO designed to target intergenic enhancers (eRNA) (antisense eT*eT*eG*eA*eT*eA*eG*eA*eT*eG*eG*e[5mC]*eA*eG*eG*eT*e[5mC]*eA*eG*eG)”, the “hGRN mRNA FC” value is on record as 1.0 FC.

As for “CO-4639: ASO designed to target intergenic enhancers (eRNA) (antisense eG*eA*eA*eA*eT*eT*eT*eA*eT*eG*e[5mC]*eG*eG*e[5mC]*e[5mC]*eA*e[5mC]*eT*eG*eT)”, the “hGRN mRNA FC” value came out at 1.1 FC.

For “CO-4640: ASO designed to target intergenic enhancers (eRNA) (antisense eG*e[5mC]*e[5mC]*e[5mC]*e[5mC]*e[5mC]*eT*eA*eG*eA*eG*eG*eA*e[5mC]*eA*eT*eT*eT*eT*eT)”, the “hGRN mRNA FC” value is 1.0 FC.

In the case of “CO-4641: ASO designed to target intergenic enhancers (eRNA) (antisense e[5mC]*eG*eT*eT*e[5mC]*e[5mC]*eA*eA*eA*e[5mC]*eA*eG*e[5mC]*eA*eG*e[5mC]*eG*eT*eT*eA)”, the “hGRN mRNA FC” value was 0.9 FC.

With “CO-4642: ASO designed to target intergenic enhancers (eRNA) (antisense eG*eG*e[5mC]*eT*eG*e[5mC]*eA*eG*eA*eT*e[5mC]*eT*e[5mC]*eT*eA*eT*eA*eT*e[5mC]*eA)”, the “hGRN mRNA FC” value is given as 1.0 FC.

On to “CO-4643: ASO designed to target intergenic enhancers (eRNA) (antisense e[5mC]*eG*eG*e[5mC]*eA*eT*eT*e[5mC]*e[5mC]*e[5mC]*eT*eG*eA*e[5mC]*e[5mC]*eT*eA*eT*e[5mC]*e[5mC])”, for which the “hGRN mRNA FC” value is reported as 0.9 FC.

With “CO-4644: ASO designed to target intergenic enhancers (eRNA) (antisense eG*eT*eT*eA*eA*eG*eT*eA*e[5mC]*eG*eT*eG*eA*e[5mC]*e[5mC]*e[5mC]*eT*eA*eT*e[5mC])”, the “hGRN mRNA FC” value is recorded as 1.1 FC.

For “CO-4645: ASO designed to target intergenic enhancers (eRNA) (antisense eA*e[5mC]*eA*eG*e[5mC]*eA*eG*eA*eA*e[5mC]*eA*eT*e[5mC]*e[5mC]*e[5mC]*eG*eT*eG*eA*eA)”, the “hGRN mRNA FC” value is 1.4 FC.

Turning to “CO-4646: ASO designed to target intergenic enhancers (eRNA) (antisense eG*eT*eG*eT*eG*eA*eA*eA*eT*eG*eA*eT*eG*eG*eT*eA*e[5mC]*e[5mC]*eA*eG)”, the “hGRN mRNA FC” value is recorded as 1.3 FC.

On to “CO-4647: ASO designed to target intergenic enhancers (eRNA) (antisense e[5mC]*eT*eA*eA*eG*e[5mC]*eG*eT*eT*eT*e[5mC]*eT*e[5mC]*eT*eA*eG*eT*e[5mC]*eA*eT)”, for which the “hGRN mRNA FC” value worked out at 0.8 FC.

In the case of “CO-4648: ASO designed to target intergenic enhancers (eRNA) (antisense eA*e[5mC]*eG*e[5mC]*e[5mC]*eA*eA*eA*e[5mC]*e[5mC]*e[5mC]*eT*eT*eG*eA*eT*e[5mC]*e[5mC]*eA*eG)”, the “hGRN mRNA FC” value came out at 1.6 FC.

On to “CO-4649: ASO designed to target intergenic enhancers (eRNA) (antisense eT*eG*eG*eG*eA*e[5mC]*eA*eG*e[5mC]*eG*eT*eG*eG*eA*eT*eT*eA*eA*eT*eA)”, for which the “hit identification” value is listed as “initial hits”, the “hGRN mRNA FC” value was found to be 1.2 FC, the “3.75 nM FC (GRN mRNA)” value was found to be 1.2 FC and the “7.5 nM FC (GRN mRNA)” value is given as 1.2 FC. The “15 nM FC (GRN mRNA)” value came out at 1.3 FC, the “30 nM FC (GRN mRNA)” value amounted to 1.2 FC, the “60 nM FC (GRN mRNA)” value is recorded as 1.2 FC and the “120 nM FC (GRN mRNA)” value was 1.3 FC.

On to “CO-4650: ASO designed to target intergenic enhancers (eRNA) (antisense eT*eA*eA*eG*eA*e[5mC]*eT*eT*eT*e[5mC]*e[5mC]*eA*eG*e[5mC]*eA*eT*eG*eT*e[5mC]*e[5mC])”, for which the “hGRN mRNA FC” value is recorded as 1.1 FC.

Consider “CO-4651: ASO designed to target intergenic enhancers (eRNA) (antisense eT*eA*eG*eG*e[5mC]*eA*e[5mC]*e[5mC]*e[5mC]*eA*eA*eG*eG*e[5mC]*eT*eT*eT*eA*eT*eT)”, for which the “hGRN mRNA FC” value is given as 1.3 FC.
